Where a name gives a salt, the structure may show the parent alone.
Tests used:
[1] = Stability of drug on dry milling; type: physicochemical; conditions: dry milled with NaCl for 180 minutes; attributed to degradation of the drug
Description: [drawing 3] was placed in a milling apparatus (a 70 cm^3 stainless steel ball mill container) with grinding compound in the form of 3.68 g of NaCl, thereby providing the mixture at 9.6 and 90.4 weight % respectively, corresponding to 15 and 85 volume %, with a total volume of 2 cm^3. Milling media comprising 40 g of 10 mm steel balls (10 pieces) were employed in the container. The milling apparatus was closed under house vacuum prior to milling. […] The mixture was dry milled for 15 minutes and 180 minutes, the composition resulting after milling for both times comprised olanzapine in nanoparticulate form dispersed in the grinding medium NaCl.
Milling times assayed included 15 and 180 minutes in two separate milling runs. Analysis of the melting point of the nanoparticles produced at 180 minute milling time period confirmed that the resulting composition was olanzapine, with a melting point in the range of 200° C.

[2] = Particle size from SEM/TEM images; type: physicochemical; conditions: for particle size (SEM/TEM): milled with NaCl, grinding compound removed by washing
BET surface area = type: physicochemical; conditions: for BET surface area: raloxifene forms, milled with NaCl and washed (commercial: as obtained)
[3] = Particle size distribution (dynamic light scattering); type: physicochemical; conditions: washed dispersion, larger aggregates removed by centrifugation
Excerpt: In a preferred form of the invention, about 90% of the particles have a particle size of less than about 500 nm. The particles distribution can be measured with dynamic light scattering of a dispersion of the particles with the aid of sonication, and after centrifugation at 500 rcf for 30 seconds to remove larger agglomerates from the dispersion. Other means to measure the particles size are for examples surface area measurements, and electron micrographs, which can be used to support the measured size distribution of the particles.
The size determined by SEM is in good agreement with the size distribution of the dispersion before drying by dynamic light scatter (DLS) (FIG. 10). Here the particles size was determined with a Malvern HPPS dynamic light scattering apparatus with a size distribution after number of 128±53 nm (number weighted) in intensity a second peak of 300 nm was detected. Prior to the measurement any larger aggregates or agglomerates were removed by 1 min centrifugation at 6000 g, and only the supernatant was analyzed.

[4] = Pharmacokinetics after oral capsule administration, crossover study; type: in vivo; conditions: 12 beagle dogs
Description: This study involved the investigation of the pharmacokinetics of raloxifene hydrochloride following oral administration of two dosage formulations to 12 male and female beagle dogs. The two dosage forms investigated were 1) raloxifene hydrochloride particles, developed according to the method of the present invention, and 2) standard API. Both forms were administered as capsules prepared by the Pharmaceutics laboratory of TetraQ.
The study was designed as a crossover trial conducted in 6 male and 6 female healthy Beagle dogs. Raloxifene was administered as an oral dose with three male plus three female dogs each receiving one of the two preparations on each of two dosing occasions. Eleven plasma samples were collected from each animal in the 24 hour period following each dose and these were all available for determination of raloxifene concentration.
Plasma samples were transported to the TetraQ-ADME laboratories on dry ice and all were in an intact (frozen) condition upon arrival. The concentration of raloxifene in the plasma samples was determined by an LC-MS/MS assay developed and validated by TetraQ-ADME,
Pharmacokinetic analysis was performed using purpose-written macros for Excel Software. Standard model-independent pharmacokinetic methods were used. Nominal sampling times were used in the calculations. The plasma raloxifene concentrations were used to determine the following parameters: • (i) Cmax Maximum plasma concentration, read directly from the raw data. • (ii) Tmax Time at which Cmax was achieved, also read directly from the raw data. • (iii) ke Terminal elimination rate constant, which was determined as the slope of the regression line of best fit to the approximately log-linear terminal elimination phase (using the least squares linear regression function in the Excel 2003 software). […]

[5] = Dissolution in simulated gastric fluid (USP apparatus); type: physicochemical; conditions: simulated gastric fluid (SGF), 60 mg in 1 L fluid, 90 minutes post addition
Description: (§1) The dissolution properties of the particulate raloxifene hydrochloride were tested with a USP apparatus in simulated gastric conditions, and compared with commercial raloxifene hydrochloride. About 60 mg of particulate raloxifene hydrochloride and commercial raloxifene hydrochloride, respectively, were introduced into gelatin capsules. The dissolution properties were followed as a function of solution concentration versus time.
The dissolution conditions were as follows: 1 L of 0.1 M HCl containing 2 g of NaCl were degassed and brought to 37° C. in a USP conform dissolution vessel to paddle and stirred at about 80 rpm. […] For each time point, 2 mL of sample were removed from the solution, to remove larger aggregates it was centrifuged for 1 min at 10000 g and 1.5 ml was taken from the top of the solution and the concentration was measured using a Waters HPLC running a method validated with respect to specificity, linearity, precision and repeatability.
(§2) As tested prior to administration to the dogs, the particulate raloxifene hydrochloride had the following properties: >75% of the particles were in the range of 220-350 nm in size, with >90% in the range of […]. […] At 90 minutes post addition, approximately 15 mg/L of particulate raloxifene was detected versus 8 mg/L of comparison API for SGF; and 4.5 mg/L versus 0.75 mg/L for SIF.

[6] = Dissolution in simulated intestinal fluid; type: physicochemical; conditions: simulated intestinal fluid (SIF), 60 mg in 1 L fluid, 90 minutes post addition
Description: as §1, §2

[7] = 15 vol % sample in NaCl, washed, stabilized with CTAB

Question: For `Cc1cc2c(s1)Nc1ccccc1N=C2N1CCN(C)CC1` [olanzapine], which “appearance after milling (degradation)” value [1] is on record?
Answer: The value was “some decolourization”.

Question: Which “particle size (SEM/TEM)” value [2] does the source give for `O=C(c1ccc(OCCN2CCCCC2)cc1)c1c(-c2ccc(O)cc2)sc2cc(O)ccc12` [Raloxifene Free Base] here?
Answer: The value was “under 100 nm”.

Question: And the “particle diameter calculated from BET surface area” value (from here on “particle diameter calculated”) (BET surface area; density of 1.2 g/cm^3)?
Answer: Its value is 85 nm.

Question: And the “particle diameter calculated” value (BET surface area; density of 1.3 g/cm^3, assuming monodispersed nanoparticles)?
Answer: Its value is “about 80 nm”.

Question: What about the “particle diameter calculated” value (BET surface area; density of 1.4 g/cm^3) of the same molecule?
Answer: The value was 70 nm.

Question: What about the BET surface area (BET surface area) of the same molecule?
Answer: Its BET surface area is 57.7178±0.4095 m^2/g.

Question: With `O=C(O)Cc1ccccc1Nc1c(Cl)cccc1Cl` [DCA, diclofenac acid] as the molecule, how does the nanoparticle size [2, 7] read?
Answer: The nanoparticle size was “less than 200 nm”.

Question: And the “size of the majority of nanoparticles” value [2, 7]?
Answer: The value was 30-50 nm.

Question: What about the “nanoparticle diameter (TEM)” value ([2]; milled with NH4Cl, washed with 0.01 M HCl and 1 mM CTAB) of the same molecule?
Answer: The value was “about 200 nm”.

Question: What about the “particle size (SEM/TEM)” value [2] of the same molecule?
Answer: The value was 100-200 nm.

Question: And the “particle size by DLS (number weighted)” value [3]?
Answer: The value was 160±30 nm.

Question: For `O=C(c1ccc(OCCN2CCCCC2)cc1)c1c(-c2ccc(O)cc2)sc2cc(O)ccc12` [Raloxifene HCl (Amorphous), raloxifene hydrochloride], which “particle size (SEM/TEM)” value ([2]; hydrochloride) is on record?
Answer: Its value is 100-200 nm.

Question: What about the BET surface area (BET surface area; hydrochloride) of the same molecule?
Answer: The BET surface area was 10.6 m^2/g.

Question: For `O=C(c1ccc(OCCN2CCCCC2)cc1)c1c(-c2ccc(O)cc2)sc2cc(O)ccc12` [commercial raloxifene hydrochloride, raloxifene hydrochloride], which BET surface area (BET surface area; listed as commercial raloxifene HCl, hydrochloride) is on record?
Answer: Its BET surface area is 0.1 m^2/g.

Question: And the “area under the concentration vs. time curve (AUC0-t)” value ([4]; mean±SD)?
Answer: Its value is 21.36 ± 16.79 ng·h/mL.

Question: And the Cmax ([4]; both sexes, dog, plasma, mean±SD, read-out: maximum plasma concentration (Cmax))?
Answer: Its Cmax is 7.69 ± 4.54 ng/mL.

Question: And the Tmax ([4]; both sexes, dog, plasma, read-out: median time to maximum concentration (Tmax))?
Answer: The Tmax was 1.5 h.

Question: And the “solution concentration detected (dissolution)” value [5]?
Answer: The value was roughly 8 mg/L.

Question: And the “solution concentration detected (dissolution)” value [6]?
Answer: Its value is roughly 0.75 mg/L.
